Target: T1, full-length human PRMT1 isoform 1 (GST-tagged) (Homo sapiens, UniProt Q99873)
T1 construct: GST-tagged PRMT1 was eluted with 50 mM Tris, 2 mM glutathione, pH 7.8, dialysed in buffer A and concentrated; made in house; host or cells: High Five insect cells (baculovirus)
Assay: PRMT1 biochemical assay (3H-SAM Flashplate, histone H4 36-50 peptide)
Conditions: 0.5 nM PRMT1, 30 min preincubation, 20 nM peptide
Summary of the method: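 GST-PRMT1 (0.5 nM) preincubated 30 min at room temperature with compound in bicine buffer pH 7.6. Reaction then run with 200 nM 3H-SAM plus 1.5 uM SAM and 20 nM biotinylated H4 36-50 peptide, 2% DMSO. Stopped with excess cold SAM, and methylated peptide captured on streptavidin Flashplates for counting; % inhibition versus DMSO and 1 mM SAH controls, 3- or 4-parameter fit.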

T1 sequence (Q99873 with tags, fused parts or gaps): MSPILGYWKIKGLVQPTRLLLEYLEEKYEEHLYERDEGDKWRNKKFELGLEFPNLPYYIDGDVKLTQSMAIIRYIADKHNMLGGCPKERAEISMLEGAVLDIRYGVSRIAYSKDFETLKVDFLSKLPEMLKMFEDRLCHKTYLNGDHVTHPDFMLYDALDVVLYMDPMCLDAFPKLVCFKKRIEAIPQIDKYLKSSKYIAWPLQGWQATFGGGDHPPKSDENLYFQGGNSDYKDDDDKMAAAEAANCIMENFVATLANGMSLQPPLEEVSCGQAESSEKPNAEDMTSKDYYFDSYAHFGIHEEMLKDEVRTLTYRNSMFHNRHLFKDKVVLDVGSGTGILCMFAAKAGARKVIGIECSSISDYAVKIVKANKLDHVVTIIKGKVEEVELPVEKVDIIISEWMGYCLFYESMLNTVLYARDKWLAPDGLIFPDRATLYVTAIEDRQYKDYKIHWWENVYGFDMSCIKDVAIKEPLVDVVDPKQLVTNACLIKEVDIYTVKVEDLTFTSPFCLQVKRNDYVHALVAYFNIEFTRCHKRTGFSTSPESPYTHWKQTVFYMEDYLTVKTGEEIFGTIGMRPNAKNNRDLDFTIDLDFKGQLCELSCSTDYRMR

IC50 [nM] | SMILES
31.2 | CCOCCOCC1(COCCOCC)CCC(c2n[nH]cc2CN(C)CCNC)CC1 [compound 39, N1-((3-(4,4-bis((2-ethoxyethoxy)methyl)cyclohexyl)-1H-pyrazol-4-yl)methyl)-N1,N2-dimethylethane-1,2-diamine]
31.5 | CN(C)CCN(C)Cc1c[nH]nc1[C@H]1CC[C@@]2(CC1)CC(C)(C)CO2 [compound 42, N1-((3-((5S,8S)-3,3-dimethyl-1-oxaspiro[4.5]decan-8-yl)-1H-pyrazol-4-yl)methyl)-N1,N2,N2-trimethylethane-1,2-diamine]
33 | CNCCN(C)Cc1c[nH]nc1C1CCC(COC)(COCC2CCOCC2)CC1 (stereo not drawn) [compound 45]
21.3 | CNCCN(C)Cc1c[nH]nc1C1CCC(CO)(CO)CC1 [compound 44, (4-(4-((methyl(2-(methylamino)ethyl)amino)methyl)-1H-pyrazol-3-yl)cyclohexane-1,1-diyl)dimethanol]
15.2 | CCC1(CC)C[C@]2(CC[C@H](c3n[nH]cc3CN(C)CCNC)CC2)NC1=O [compound 47, (5s,8s)-3,3-diethyl-8-(4-((methyl(2-(methylamino)ethyl)amino)methyl)-1H-pyrazol-3-yl)-1-azaspiro[4.5]decan-2-one]
4.8 | CC[C@H]1CC[C@@H](c2n[nH]cc2CN(C)CCNC)CC1 [compound 1]
19.8 | CNCCN(C)Cc1c[nH]nc1C1=CCC2(CC1)CC(C)(C)CO2 (stereo not drawn) [compound 46, N1-((3-(3,3-dimethyl-1-oxaspiro[4.5]dec-7-en-8-yl)-1H-pyrazol-4-yl)methyl)-N1,N2-dimethylethane-1,2-diamine]
35.3 | CCC1(CC)C[C@]2(CC[C@@H](c3n[nH]cc3CN(C)CCNC)CC2)NC1=O [compound 48, (5r,8r)-3,3-diethyl-8-(4-((methyl(2-(methylamino)ethyl)amino)methyl)-1H-pyrazol-3-yl)-1-azaspiro[4.5]decan-2-one]
57 | CN(C)CCN(C)Cc1c[nH]nc1[C@H]1CC[C@]2(CC1)CC(C)(C)CO2 [compound 43, N1-((3-((5r,8r)-3,3-dimethyl-1-oxaspiro[4.5]decan-8-yl)-1H-pyrazol-4-yl)methyl)-N1,N2,N2-trimethylethane-1,2-diamine]
20.7 | CNCCN(C)Cc1c[nH]nc1C1CCC(COCCC2CCOCC2)(COCCC2CCOCC2)CC1 [compound 40]
4.33 | CNCCN(C)Cc1c[nH]nc1C1CCC(COCC2CC2)(COCC2CC2)CC1 [compound 41, N1-((3-(4,4-bis((cyclopropylmethoxy)methyl)cyclohexyl)-1H-pyrazol-4-yl)methyl)-N1,N2-dimethylethane-1,2-diamine]
19.3 | CNCCN(C)Cc1ccnn1[C@H]1CC[C@@]2(CC1)CC(C)(C)CO2 [compound 49, N1-((1-((5s,8s)-3,3-dimethyl-1-oxaspiro[4.5]decan-8-yl)-1H-pyrazol-5-yl)methyl)-N1,N2-dimethylethane-1,2-diamine]

Reference: US20170291905A1, “ARGININE […] INHIBITORS AND USES THEREOF” (Epizyme, Inc., priority 2014, published 2017)
